Measurements as given in US20250388604A1, “Compounds and Their Use as PDE4 Activators” (Mironid Limited, priority 2022, published 2025).

Key:
[1] = tested on: m-IMCD3 cells expressing PDE4 long forms; assay: cAMP levels in PGE2-stimulated 3D m-IMCD3 cell culture media; format: cell-based; conditions: Mus musculus, mIMCD3, compared to 100% for (DMSO + PGE2), read-out: cAMP level (% of PGE2-stimulated); for activity at 3 µM: 3 μM test compound
Procedure: HEK 293 and MDCK cells (Public Health England, Cell Culture Collections) were maintained in Dulbecco's Modified Eagle's Medium (DMEM) supplemented with 10% (v/v) fetal bovine serum (FBS) (Seralab), 2 mM L-glutamine and 100 U/mL penicillin streptomycin cocktail (ThermoFisher); termed complete media. Clonal HEK 293 cell lines were maintained in complete media supplemented with 0.6 mg/ml G418 (Enzo Life Sciences). Mouse inner medullary collecting duct (m-IMCD3) cells [American Type Culture Collection (ATCC)] were maintained in media consisting of DMEM/Hams F-12 50/50 Mix (DMEM F12; Corning) supplemented with penicillin streptomycin cocktail (100 U/mL) and FBS (10% v/v) (DMEM F12-10% FBS).
Activation of intracellular PDE4 long forms leads to a reduction of both intracellular cAMP and externalised cAMP (Omar et al., PNAS 116: 13320-13329, 2019). This reduction may be measured in the cell culture media supernatant of 3D cystic cell cultures, such as in the m-IMCD3 cell cyst suppression assay described in Experiment 3.
Following the completion of the m-IMCD3 cell cyst suppression assay (Experiment 3), the cAMP level in the assay media from individual or pooled assay wells was measured using a cAMP ELISA kit (Enzo Life Sciences) or a LANCE Ultra cAMP kit (PerkinElmer) according to the manufacturer's instructions.

m-IMCD3 cells = assay: Inhibition of PGE2-stimulated in vitro cyst formation in m-IMCD3 cells; format: cell-based, mouse; conditions: Mus musculus, mIMCD3, 144 h, mean cyst area, 100% for (DMSO + PGE2) and 0% for DMSO control, 6 days of culture; for activity at 3 µM: read-out: % Cyst area after incubation with 3 μM test compound; for activity at 10 µM: read-out: % Cyst area after incubation with 10 μM test compound
Outline: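 Mean cyst area after 6 days, expressed relative to DMSO+PGE2 (100%) and DMSO alone (0%), from z-stack images. Mouse m-IMCD3 spheroids grew in collagen I/Matrigel gels and received PGE2 (100 nM final) with test compound (0.1% DMSO) starting 18–24 h post-plating, media refreshed at day 2 or 3.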

| SMILES | activity at 3 µM [1] | activity at 3 µM (m-IMCD3 cells) | activity at 10 µM (m-IMCD3 cells) | activity at 10 µM ([1]; 10 μM test compound) |
| --- | --- | --- | --- | --- |
| CCN1CC2CCC(C1)N2c1nc2c(s1)CN(C(=O)CC1CCCC1)CC2 [Example 291, 2-cyclopentyl-1-(2-(3-ethyl-3,8-diazabicyclo[3.2.1]octan-8-yl)-6,7-dihydrothiazolo[5,4-c]pyridin-5(4H)-yl)ethan-1-one] | 45% | 3% |  |  |
| O=C(CC1CCCC1)N1CCn2nc(N3C4CCC3CNC4)cc2C1 [Example 127, 1-(2-(3,8-diazabicyclo[3.2.1]octan-8-yl)-6,7-dihydropyrazolo[1,5-a]pyrazin-5(4H)-yl)-2-cyclopentylethan-1-one] | 42% |  | 3% |  |
| CCN1CCN(c2nc3c(s2)CN(C(=O)N[C@H]2CCOc4ccccc42)CC3)CC1 [Example 297, (S)—N-(chroman-4-yl)-2-(4-ethylpiperazin-1-yl)-6,7-dihydrothiazolo[5,4-c]pyridine-5(4H)-carboxamide] | 45% | 9% |  |  |
| CC1(C)CN(C(=O)CC2CCC3(CC2)COC3)Cc2sc(N3C4CCC3CNC4)nc21 [Example 260, 1-(2-(3,8-diazabicyclo[3.2.1]octan-8-yl)-7,7-dimethyl-6,7-dihydrothiazolo[5,4-c]pyridin-5(4H)-yl)-2-(2-oxaspiro[3.5]nonan-7-yl)ethan-1-one] | 52% | 10% |  |  |
| O=C([C@H](O)C1CCCC1)N1CCc2nc(N3C4CCC3CNC4)sc2C1 [Example 171, (2R)-1-(2-(3,8-diazabicyclo[3.2.1]octan-8-yl)-6,7-dihydrothiazolo[5,4-c]pyridin-5(4H)-yl)-2-cyclopentyl-2-hydroxyethan-1-one] | 56% | 6% |  |  |
| CC(C)N1CC2CCC(C1)N2c1nc2c(s1)CN(C(=O)CC1CCCC1)CC2 [Example 290, 2-cyclopentyl-1-(2-(3-isopropyl-3,8-diazabicyclo[3.2.1]octan-8-yl)-6,7-dihydrothiazolo[5,4-c]pyridin-5(4H)-yl)ethan-1-one] | 35% | -9% |  |  |
| O=C(CC1CCCC1)N1CCc2sc(N3C4CCC3CNC4)nc2C1 [Example 281, 1-(2-(3,8-diazabicyclo[3.2.1]octan-8-yl)-6,7-dihydrothiazolo[4,5-c]pyridin-5(4H)-yl)-2-cyclopentylethan-1-one] | 51% | -9% |  |  |
| CC(C)(C)CC(=O)N1CCc2sc(N3C4CCC3CNC4)nc2C1 [Example 282, 1-(2-(3,8-diazabicyclo[3.2.1]octan-8-yl)-6,7-dihydrothiazolo[4,5-c]pyridin-5(4H)-yl)-3,3-dimethylbutan-1-one] | 35% | 3% |  |  |
| CCN1CC2CCC(C1)N2c1nc2c(s1)CN(C(=O)COc1ccc(F)cc1)CC2 [Example 302, 1-(2-(3-ethyl-3,8-diazabicyclo[3.2.1]octan-8-yl)-6,7-dihydrothiazolo[5,4-c]pyridin-5(4H)-yl)-2-(4-fluorophenoxy)ethan-1-one] | 48% | 5% |  |  |
| O=C(CC1CCCC1)N1CCc2nc(C3CCNCC3)sc2C1 [Example 118, 2-cyclopentyl-1-(2-(piperidin-4-yl)-6,7-dihydrothiazolo[5,4-c]pyridin-5(4H)-yl)ethan-1-one] | 52% |  | 5% |  |
| CC(C)N1CC2CCC(C1)N2c1nc2c(s1)CN(C(=O)COc1ccc(F)cc1)CC2 [Example 298, 2-(4-fluorophenoxy)-1-(2-(3-isopropyl-3,8-diazabicyclo[3.2.1]octan-8-yl)-6,7-dihydrothiazolo[5,4-c]pyridin-5(4H)-yl)ethan-1-one] | 48% | -7% |  |  |
| CC1(CC(=O)N2CCn3nc(N4C5CCC4CNC5)cc3C2)CCCC1 [Example 128, 1-(2-(3,8-diazabicyclo[3.2.1]octan-8-yl)-6,7-dihydropyrazolo[1,5-a]pyrazin-5(4H)-yl)-2-(1-methylcyclopentyl)ethan-1-one] | 50% |  | -2% |  |
| O=C(CC1CCCC1)N1CCc2nc(N3C4CCC3CNC4)sc2C1 [Example 1, 1-(2-(3,8-diazabicyclo[3.2.1]octan-8-yl)-6,7-dihydrothiazolo[5,4-c]pyridin-5(4H)-yl)-2-cyclopentylethan-1-one] |  |  | -5% | 14% |
| O=C(CC1CCCC1)N1CCc2nc(N3CC4CCCC(C3)N4)sc2C1 [Example 280, 1-(2-(3,9-diazabicyclo[3.3.1]nonan-3-yl)-6,7-dihydrothiazolo[5,4-c]pyridin-5(4H)-yl)-2-cyclopentylethan-1-one] | 33% | -10% |  |  |
| CC(C)CC(=O)N1Cc2sc(N3C4CCC3CNC4)nc2C(C)(C)C1 [Example 257, 1-(2-(3,8-diazabicyclo[3.2.1]octan-8-yl)-7,7-dimethyl-6,7-dihydrothiazolo[5,4-c]pyridin-5(4H)-yl)-3-methylbutan-1-one] | 36% | -3% |  |  |
| O=C(CC1CCCC1)N1CCc2nc(N3C[C@@H]4C[C@H]3CN4)sc2C1 [Example 277, 1-(2-((1S,4S)-2,5-diazabicyclo[2.2.1]heptan-2-yl)-6,7-dihydrothiazolo[5,4-c]pyridin-5(4H)-yl)-2-cyclopentylethan-1-one] | 42% | 6% |  |  |
| O=C(OC1CCCC1)N1CCc2nc(N3C4CCC3CNC4)sc2C1 [Example 244, cyclopentyl 2-(3,8-diazabicyclo[3.2.1]octan-8-yl)-6,7-dihydrothiazolo[5,4-c]pyridine-5(4H)-carboxylate] | 40% | 6% |  |  |
| O=C(CC1CCCC1)N1CCc2nc(N3C[C@H]4C[C@@H]3CN4)sc2C1 [Example 279, 1-(2-((1R,4R)-2,5-diazabicyclo[2.2.1]heptan-2-yl)-6,7-dihydrothiazolo[5,4-c]pyridin-5(4H)-yl)-2-cyclopentylethan-1-one] | 27% | 19% |  |  |
| O=S(=O)(Cc1ccc(F)cc1)N1CCc2nc(N3C4CCC3CNC4)sc2C1 [Example 285, 2-(3,8-diazabicyclo[3.2.1]octan-8-yl)-5-((4-fluorobenzyl)sulfonyl)-4,5,6,7-tetrahydrothiazolo[5,4-c]pyridine] | 35% | -3% |  |  |
| CCN1CC2CCC(C1)N2c1nc2c(s1)CN(S(=O)(=O)Cc1ccc(F)cc1)CC2 [Example 286, 2-(3-ethyl-3,8-diazabicyclo[3.2.1]octan-8-yl)-5-((4-fluorobenzyl)sulfonyl)-4,5,6,7-tetrahydrothiazolo[5,4-c]pyridine] | 52% | -2% |  |  |
| O=C(CC1CCC(F)(F)CC1)N1Cc2nc(N3C4CCC3CNC4)sc2C1 [Example 67, 1-(2-(3,8-diazabicyclo[3.2.1]octan-8-yl)-4,6-dihydro-5H-pyrrolo[3,4-d]thiazol-5-yl)-2-(4,4-difluorocyclohexyl)ethan-1-one] |  |  | -4% |  |
| O=C(C1CC12CCCC2)N1CCc2nc(N3C4CCC3CNC4)sc2C1 (stereo not shown) [Example 162, (2-(3,8-diazabicyclo[3.2.1]octan-8-yl)-6,7-dihydrothiazolo[5,4-c]pyridin-5(4H)-yl)(spiro[2.4]heptan-1-yl)methanone] |  | 14% |  |  |
| O=C(CC1CCC(F)(F)C1)N1CCc2nc(N3C4CCC3CNC4)sc2C1 (stereo not shown) [Example 137, 1-(2-(3,8-diazabicyclo[3.2.1]octan-8-yl)-6,7-dihydrothiazolo[5,4-c]pyridin-5(4H)-yl)-2-(3,3-difluorocyclopentyl)ethan-1-one] |  |  | -4% |  |
| CN1CC2CCC(C1)N2c1nc2c(s1)CN(C(=O)COc1ccc(F)cc1)CC2 [Example 301, 2-(4-fluorophenoxy)-1-(2-(3-methyl-3,8-diazabicyclo[3.2.1]octan-8-yl)-6,7-dihydrothiazolo[5,4-c]pyridin-5(4H)-yl)ethan-1-one] |  | -6% |  |  |
| CC(C)(C(=O)N1CCc2nc(N3C4CCC3CNC4)sc2C1)C(F)(F)F [Example 32, 1-(2-(3,8-diazabicyclo[3.2.1]octan-8-yl)-6,7-dihydrothiazolo[5,4-c]pyridin-5(4H)-yl)-3,3,3-trifluoro-2,2-dimethylpropan-1-one] |  |  | 1% |  |
| O=C(CC1CCCC1)N1Cc2sc(N3C4CCC3CNC4)nc2C2(CC2)C1 [Example 265, 1-(2′-(3,8-diazabicyclo[3.2.1]octan-8-yl)-4′H-spiro[cyclopropane-1,7′-thiazolo[5,4-c]pyridin]-5′(6′H)-yl)-2-cyclopentylethan-1-one] |  | -3% |  |  |
